Data from patent US20260200924A1, “CANNABINOID RECEPTOR 1 ANTAGONISTS AND USES” (RESEARCH TRIANGLE INSTITUTE, priority 2022, published 2026).

What was measured:
human CB2 = human CB2 (Homo sapiens, UniProt P34972); experiment: radioligand displacement assay using [3H]CP55940 in CHO cell membrane preparations (CB2, for selectivity); type: binding; conditions: ratio of Ki human CB2 / human CB1
Excerpt: (§1) See Ki values above, based on radioligand displacement assay using ^3H-CP55940, a synthetic cannabinoid, (−)-cis-3-[2-hydroxy-4-(1,1-dimethylheptyl)phenyl]-trans-4-(3-hydroxypropyl)cyclohexanol, which is a compound commonly used to study the endocannabinoid system.

human CB1 [1] = biological target: T1, human CB1 (Homo sapiens, UniProt P21554); experiment: radioligand displacement assay using [3H]CP55940 in CHO cell membrane preparations; type: binding; conditions: [3H]CP55940 displacement, CHO cell membranes overexpressing human CB1; read-out: Ki hCB1
T1 construct: expressed in transfected cells; host or cells: CHO cells co-expressing Gqα16
Excerpt: as §1

HLM stability = type: in vitro ADME; conditions: for HLM HL: HLM half-life; for microsomal CLint: human, liver microsomes, HLM clearance, read-out: HLM Cl
human CB1 [2] = biological target: T1, human CB1; experiment: functional fluorescent calcium mobilization assay, antagonism of CP55,940 (Ke); type: cell-based; conditions: for Kd: apparent equilibrium dissociation constant, CHO cells expressing human CB1 along with Gqα16, agonist CP55,940, read-out: Ke hCB1
Experimental: (§2) A functional fluorescent calcium mobilization was performed in CHO cells expressing human CB1 along with Gqα16. In FIG. 1A, a concentration-dependent increase in fluorescence upon treatment with the CB1 agonist CP55,940 is shown (solid line/triangle markers). […] The EC50 values in the presence and absence of the antagonist are used to calculate antagonist apparent equilibrium dissociation constant (Ke). Suppression of basal signaling in the absence of any stimulation/agonism was measured using the same approach. […] Provided data are representative of a minimum of three experiments and were fitted using non-linear regression analyses in GraphPad Prism.

male C57BL/6J mice = experiment: reversal of diet-induced obesity (DIO) in mice; type: in vivo; conditions: oral, 1x daily, 5 days per week
Experimental: Preconditioned male C57BL/6J mice were purchased from the Jackson Laboratories (Bar Harbor, Maine) at 18 weeks of age. These animals were maintained either on ad libitum standard diet (SD) with 10% fat (D12450B) or on 60% high fat diet (HFD; D12492) from Research Diets (New Brunswick, NJ.) Animals were dosed by intragastric gavage once daily Monday-Friday (5 days per week) with either vehicle (0.5% sodium carboxymethylcellulose with 1% NMP and 0.3% Tween 80 in de-ionized water) or Compound 3 suspended in the vehicle. Body weights were recorded at regular intervals. Organs were removed and processed as has been described in the legend of FIG. 4. Biomarkers of efficacy were measured including circulating enzymes, liver weight and liver adiposity as indicated.
Data were reported as mean (FIG. 4A) or mean and range (FIGS. 4B and 4C). […] Hepatic statosis was reduced, as assessed using Oil Red O staining (FIG. 4G), with representative images shown as FIGS. 4H, 4I, and 4J. Significance was calculated using ANOVA with Fisher's test (p<0.05*, 0.01**, 0.001***, 0.0001****).

C57BL6 male mice = experiment: THC drug discrimination model; type: in vivo
Excerpt: Drug discrimination is a behavioral model of the interoceptive effects of a compound. This pharmacologically selective model has high predictive validity, producing a strong correlation between drugs that have sharing discriminative stimulus properties in animals and drugs that humans identify as having similar subjective effects. FIG. 3 provides the results of this study, in which C57BL6 male mice (n=8) were trained to discriminate the reference drug (THC) using a discrimination procedure similar to that described in Wiley et al., Neuropharmacology 75, 145-154 (2013), Van et al., Eur. J. Pharmacol. 615, 102-107, and Wiley et al., J. Pharmacol. Exp. Ther. 354, 328-339 (2015), which are incorporated herein by reference in their entireties. For each session, the percentage of responses on the drug-associated lever and response rate response(s) were calculated.

CB1 receptor = biological target: T2, CB1 receptor (Mus musculus, UniProt P47746); experiment: PET target engagement with CB1 radiotracer 11C-JHU75528; type: in vivo; conditions: male and female B6 mice, IP pretreatment
T2 construct: from tissue; host or cells: brain of living B6 mice (in vivo PET)
Experimental: FIG. 5A provides a representative image of target specificity of Compound 3 for the CB1 receptor in mice along with quantification. […] The well-characterized CB1 radiotracer ^11C-JHU75528 was used for this purpose. A baseline response for each animal (2 male and 2 female mice) was first established using the vehicle and tracer (~10 MBq in 0.1-0.15 ml volume, tail vein catheter). Following a 48-hr washout, animals were administered Compound 3 via intraperitoneal (IP) injection followed by the probe. PET image acquisition by dynamic scanning was performed for 65 min after the second injection with energy window of 350-700 KeV. […] The PET images were normalized to the standardized uptake value (SUV) unit. Two-tissue compartmental model was applied using the PKIN module in PMOD 4.0 software. See, e.g., FIG. 5B, where quantification of the signal confirmed a blocking effect on cerebral uptake. Compound 3 blocked ^11C-JHU75528 uptake, confirming in vivo activity.

human CB1 [3] = biological target: T1, human CB1; experiment: suppression of basal signaling in fluorescent calcium mobilization assay (inverse agonism); type: cell-based
Experimental: as §2, with “Gqα16.” for “Gqα16. In FIG. 1A, a concentration-dependent increase in fluorescence upon treatment with the CB1 agonist CP55,940 is shown (solid line/triangle markers).”

T1 sequence (P21554 whole entry): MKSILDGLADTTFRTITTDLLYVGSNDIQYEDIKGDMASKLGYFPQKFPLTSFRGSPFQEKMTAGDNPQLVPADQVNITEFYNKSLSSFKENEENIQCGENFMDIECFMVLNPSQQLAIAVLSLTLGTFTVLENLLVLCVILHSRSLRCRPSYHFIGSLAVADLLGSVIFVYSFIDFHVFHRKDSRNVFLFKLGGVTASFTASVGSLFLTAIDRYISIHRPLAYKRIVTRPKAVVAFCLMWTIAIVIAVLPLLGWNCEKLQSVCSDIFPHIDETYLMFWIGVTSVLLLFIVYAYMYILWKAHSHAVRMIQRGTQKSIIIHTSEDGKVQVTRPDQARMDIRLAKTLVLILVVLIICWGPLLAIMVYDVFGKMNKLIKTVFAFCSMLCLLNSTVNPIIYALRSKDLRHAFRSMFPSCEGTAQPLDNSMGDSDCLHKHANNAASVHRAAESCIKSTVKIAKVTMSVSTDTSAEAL
Sequence of human CB2 (P34972 whole entry): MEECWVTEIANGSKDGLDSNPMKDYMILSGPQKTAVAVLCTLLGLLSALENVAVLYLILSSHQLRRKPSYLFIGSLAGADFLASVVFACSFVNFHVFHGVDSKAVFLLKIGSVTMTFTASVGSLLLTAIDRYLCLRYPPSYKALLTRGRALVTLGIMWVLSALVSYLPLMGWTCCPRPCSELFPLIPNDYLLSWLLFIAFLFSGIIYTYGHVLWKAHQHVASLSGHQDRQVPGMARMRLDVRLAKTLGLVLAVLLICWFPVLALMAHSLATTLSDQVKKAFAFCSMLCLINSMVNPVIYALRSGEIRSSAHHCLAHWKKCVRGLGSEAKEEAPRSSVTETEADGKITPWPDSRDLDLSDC
T2 sequence (P47746 whole entry): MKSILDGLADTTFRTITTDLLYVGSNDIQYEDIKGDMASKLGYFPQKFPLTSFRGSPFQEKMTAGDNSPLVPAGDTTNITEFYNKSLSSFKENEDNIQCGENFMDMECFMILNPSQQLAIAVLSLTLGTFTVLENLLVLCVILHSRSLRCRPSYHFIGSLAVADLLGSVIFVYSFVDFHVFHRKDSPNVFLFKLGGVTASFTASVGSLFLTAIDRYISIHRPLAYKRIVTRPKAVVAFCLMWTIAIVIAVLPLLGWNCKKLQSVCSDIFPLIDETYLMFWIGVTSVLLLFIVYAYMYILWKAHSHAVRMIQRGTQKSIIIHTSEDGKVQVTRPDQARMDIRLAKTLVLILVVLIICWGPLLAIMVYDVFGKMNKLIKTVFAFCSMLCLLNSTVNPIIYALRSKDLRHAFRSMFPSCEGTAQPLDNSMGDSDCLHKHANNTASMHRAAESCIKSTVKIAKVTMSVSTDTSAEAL

Selectivity Ki (CB2/CB1) (human CB2) | Ki (human CB1 [1]) [nM] | HLM HL (HLM stability) [min] | microsomal CLint (HLM stability) [µL/min/mg] | Kd (human CB1 [2]) [nM] | SMILES | also measured
110 | 1.5 | 146 | 9 | 1 | O=C(Cc1ccccc1F)NC1CCN(c2ncnc3c2nc(-c2ccccc2Cl)n3-c2ccc(Cl)cc2)CC1 [Compound 1, N-{1-[8-(2-Chlorophenyl)-9-(4-chlorophenyl)-9H-purin-6-yl]piperidin-4-yl}-2-(2-fluorophenyl)acetamide] | –
210 | 1.4 | 150 | 8 | 1 | O=C(Cc1ccc(F)cc1)NC1CCN(c2ncnc3c2nc(-c2ccccc2Cl)n3-c2ccc(Cl)cc2)CC1 [Compound 2, N-{1-[8-(2-Chlorophenyl)-9-(4-chlorophenyl)-9H-purin-6-yl]piperidin-4-yl}-2-(4-fluorophenyl)acetamide] | –
510 | 1.1 | 133 | 9 | 0.8 | O=C(Cc1ccc(F)cc1F)NC1CCN(c2ncnc3c2nc(-c2ccccc2Cl)n3-c2ccc(Cl)cc2)CC1 [Compound 3, N-{1-[8-(2-Chlorophenyl)-9-(4-chlorophenyl)-9H-purin-6-yl]piperidin-4-yl}-2-(2,4-difluorophenyl)acetamide] | body weight (male C57BL/6J mice): significantly reduced; circulating transaminase ALT (male C57BL/6J mice): reduce; circulating transaminase AST (male C57BL/6J mice): reduce; hepatic cholesterol content (male C57BL/6J mice): decrease; hepatic steatosis (Oil Red O staining) (male C57BL/6J mice): reduced; epididymal adipose weight (male C57BL/6J mice; normalized to tibia length): significantly reduced; liver weight (male C57BL/6J mice; normalized to tibia length): significantly reduced; response rates (C57BL6 male mice; compared to controls): not significantly altered; maximum inhibition of THC drug discrimination (C57BL6 male mice; compared with rimonabant): comparable to that of rimonabant; THC drug discrimination (C57BL6 male mice; mice trained on 5.6 mpk THC, 3, 5.6 and 10 mpk antagonist): antagonize; 11C-JHU75528 cerebral uptake (PET) (CB1 receptor): blocked; effect on basal signaling (inverse agonism) (human CB1 [3]; absence of any stimulation/agonism): partial inverse agonist; Emax (human CB1 [3]; read-out: partial suppression of maximal response (basal signaling), % of rimonabant Emax): ~30%; antagonism: shift of the CP55,940 curve (human CB1 [2]; pre-incubation with antagonist): rightward shift
– | – | – | – | 3.8 | CC1(NC(=O)Cc2ccccc2F)CCN(c2ncnc3c2nc(-c2ccccc2Cl)n3-c2ccc(Cl)cc2)CC1 [Compound 4, N-{1-[8-(2-Chlorophenyl)-9-(4-chlorophenyl)-9H-purin-6-yl]-4-methylpiperidin-4-yl}-2-(2-fluorophenyl)acetamide] | –
– | – | – | – | 1.8 | CC1(NC(=O)Cc2ccc(F)cc2)CCN(c2ncnc3c2nc(-c2ccccc2Cl)n3-c2ccc(Cl)cc2)CC1 [Compound 5, N-{1-[8-(2-Chlorophenyl)-9-(4-chlorophenyl)-9H-purin-6-yl]-4-methylpiperidin-4-yl}-2-(4-fluorophenyl)acetamide] | –
